Reference: ChEMBL document CHEMBL1127171, “N-2 methylated quaternary derivatives of -carboline-3-carboxylates inhibit acetylcholinesterase in vitro” (Bioorg Med Chem Lett, 1993)
Calls of active or inactive are those of the source. No cut-off for these calls is given here.

What was measured:
[1] = target: Acetylcholinesterase (Electrophorus electricus) (UniProt O42275); assay: The compound was tested in vitro for the inhibition of acetylcholinesterase (AChE) isolated from electric eel at 10e-6 M
Sequence of Acetylcholinesterase (Electrophorus electricus) (O42275 24-633 limits assumed): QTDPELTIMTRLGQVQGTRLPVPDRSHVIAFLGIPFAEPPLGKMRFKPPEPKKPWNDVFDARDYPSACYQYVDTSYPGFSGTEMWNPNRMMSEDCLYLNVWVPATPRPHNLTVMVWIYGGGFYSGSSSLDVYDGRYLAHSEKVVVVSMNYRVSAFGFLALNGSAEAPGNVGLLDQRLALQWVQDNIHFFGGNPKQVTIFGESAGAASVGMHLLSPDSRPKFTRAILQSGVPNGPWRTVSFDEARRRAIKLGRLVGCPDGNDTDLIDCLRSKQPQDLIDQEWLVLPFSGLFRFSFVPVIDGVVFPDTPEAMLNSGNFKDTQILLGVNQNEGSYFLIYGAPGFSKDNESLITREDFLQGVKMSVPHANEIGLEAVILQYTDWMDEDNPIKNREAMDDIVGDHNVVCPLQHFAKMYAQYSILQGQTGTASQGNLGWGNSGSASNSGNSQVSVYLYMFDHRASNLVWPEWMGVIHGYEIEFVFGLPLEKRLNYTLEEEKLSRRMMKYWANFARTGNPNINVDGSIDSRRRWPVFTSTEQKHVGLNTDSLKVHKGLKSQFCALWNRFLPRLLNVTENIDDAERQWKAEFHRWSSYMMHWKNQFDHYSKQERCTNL

[2] = target: Acetylcholinesterase (Electrophorus electricus) (UniProt O42275); assay: The compound was tested in vitro for the inhibition of acetylcholinesterase (AChE) isolated from electric eel at 10e-5 M
[3] = target: GABA-A receptor; anion channel; assay: Displacement of [3H]flunitrazepam from GABA-A benzodiazepine receptor (BZR) of rat brain membranes (NA = no significant activity); format: cell membranes, Membrane
[4] = target: Acetylcholinesterase (Electrophorus electricus) (UniProt O42275); assay: The compound was tested in vitro for the inhibition of acetylcholinesterase (AChE) isolated from electric eel at 10e-6 M; NA means no significant activity at 10e-3 M
[5] = target: Acetylcholinesterase (Electrophorus electricus) (UniProt O42275); assay: The compound was tested in vitro for the inhibition of acetylcholinesterase (AChE) isolated from electric eel at 10e-5 M; NA means no significant activity at 10e-3 M
[6] = target: Muscarinic acetylcholine receptor; assay: The compound was tested in vitro for its binding affinity to muscarinic receptor on rat brain membrane by competitive binding assay using [3H]-QNB
[7] = target: GABA-A receptor; anion channel; assay: Displacement of [3H]flunitrazepam from GABA-A benzodiazepine receptor (BZR) of rat brain membranes; format: cell membranes, Membrane
[8] = test system: GABA-A receptor; anion channel; assay: Displacement of [3H]flunitrazepam from GABA-A benzodiazepine receptor (BZR) of rat brain membranes (NA = no significant activity at 10e-3 M); format: cell membranes, Membrane

SMILES | inhibition [1] | inhibition [2] | Ki [3] | inhibition [4] | inhibition [5] | Ki [6] | Ki [7] | Ki [8]
CN(C)C(=O)Oc1ccc[n+](C)c1 | 59% | 93% |  |  |  |  |  | 
COC(=O)c1cc2c(cn1)[nH]c1ccccc12 [BETA-CCM] |  |  | 3 nM | inactive | inactive |  |  | 
CCCOC(=O)c1cc2c(c[n+]1C)[nH]c1ccccc12.[I-] | 34.9% | 80.1% |  |  |  | 1000 nM | 600 nM | 
CCOC(=O)c1cc2c(c[n+]1C)[nH]c1ccccc12.[I-] | 13.7% | 60.9% |  |  |  | 700 nM | 3200 nM | 
CCOC(=O)c1cc2cc[nH]c2c[n+]1C.[I-] | 4% | 17% |  |  |  |  |  | Not Active
CNC(=O)c1cc2c(c[n+]1C)[nH]c1ccccc12.[I-] | 1.3% | 7.4% |  |  |  | 27000 nM | 600 nM | 
C[n+]1ccc2c(c1)[nH]c1ccccc12 [NORMELINONINE F] | 7.6% | 41.2% |  |  |  |  |  | Not Active
CCCCOC(=O)c1cc2c(c[n+]1C)[nH]c1ccccc12.[I-] | 46% | 88% |  |  |  | 500 nM | 4600 nM | 
CC(C)OC(=O)c1cc2c(c[n+]1C)[nH]c1ccccc12.[I-] | 14% | 62% |  |  |  | 500 nM | 4100 nM | 
COC(=O)c1cc2c(c[n+]1C)[nH]c1ccccc12 | 7.2% | 43.1% |  |  |  | 3100 nM | 1400 nM | 
